Marks after values point to notes of the source that are not given here.
How the values were obtained:
[1] = system: tomato leaf disks; assay: Extracellular ROS production, luminol chemiluminescence; format: cell-based, Solanum lycopersicum; details: 100 μM, monitored over 720 min
From the text: Bacterial rhamnolipids, such as compound 3, trigger the plant immune system, which can ultimately lead to plant protection against diseases caused by fungal and bacterial pathogens.[23] As ananatoside A (1) and ananatoside B (2) share structural similarities with rhamnolipid 3 and because they have been isolated from P. ananatis cultures, an emerging plant pathogen causing important agricultural damage worldwide,[81] we wanted to investigate whether these bacterial glycolipids, along with our unprecedented series of synthetic rhamnolactones, could be perceived by the plant immune system. We relied on measuring the extracellular content of reactive oxygen species (ROS) produced by tomato plants (Solanum lycopersicum) following treatment with the synthetic compounds, as an early and important marker of plant immunity.[20,22,82] Tomato leaves were challenged with synthetic glycolipids 1–6 at concentrations of 100 μM and the production of ROS was monitored over a 720 min time frame (Fig. 5).
Fig. 5 Extracellular reactive oxygen species (ROS) production following treatment of tomato leaf disks with ananatoside A (1), ananatoside B (2), RhaC10C10 (3), and related macrodilactone-containing rhamnolipids (4–6). Production of ROS was measured in tomato leaf disks following treatment at 100 μM with synthetic glycolipids (1–6). MeOH (0.5%) was used as a control. ROS production was measured using the chemiluminescence of luminol and photon counts were expressed as relative luminescence units (RLUs). Data are mean ± SEM (n = 6). Experiments were independently realized three times with similar results. […]
Plant Material and Growth Conditions. Tomato plants (Solanum lycopersicum L var. Ailsa craig, Scotland) were grown on soil in growth chamber with white fluorescent light [200 μmol•(m−2 s−1)], under 16 h/8 h light/dark regime, 60% relative humidity , and a temperature of 24 /20 °C during four weeks prior treatment. Arabidopsis thaliana plants (ecotype Col -0) were grown on soil in growth chambers with white fluorescent light (150 μmol m−2 s−1), under 12 h/12 h light/dark regime, 60% relative humidity, and a temperature of 20/20 °C during six weeks prior treatment.
Reactive Oxygen Species (ROS) Production. ROS assays were performed on four-week old tomato plants or six-week old Arabidopsis plants. Briefly, tomato leaf disks of 6 mm diameter or Arabidopsis petiole sections of 5 mm long were cut and placed in a 96-well plate (Optiplate TM-96 white, PerkinElmer) containing 150 µL of distilled H2O and then incubated at rt for 24 h to reduce the wounding response.11 The elicitation solution containing 0.2 µg•mL−1 luminol (A4685-5 g, Sigma), […] (P6782, Sigma) and the tested glycolipids (1, 2, 3, 4, 5α, 5β, 6α or 6β) at 100 μM was prepared. Methanol (0.5%) was used as negative control. Prior elicitation, the incubating distilled H2O was carefully removed from each well, avoiding any tissue damage or desiccation. Then, the elicitation solution (150 µL) was quickly added to each well containing a leaf disk or a petiole. Luminescence (relative light units, RLU) was measured every 4

[2] = Cytotoxicity, resazurin assay, summary over cell lines; format: cell-based; details: human, DLD-1 and WS1 cells (summary over the three lines); A549, DLD-1 and WS1; read-out: Cytotoxicity IC50 against human cell lines
Method: As the anticancer potential of microbial rhamnolipids has previously been reported,[16] we next sought to evaluate the in vitro cytotoxicity of our synthetic and natural glycolipids 1–6 against cancerous cell lines, i.e., human lung carcinoma (A549) and colorectal adenocarcinoma (DLD-1). The compounds were also tested against human normal skin fibroblasts (WS1) to estimate their selectivity towards cancer cells.
4. Experimental Procedures for Biological Evaluation and Surfactant Properties. […]
Cell Culture. Human lung carcinoma (A549), human colorectal adenocarcinoma (DLD-1), and human normal skin fibroblasts (WS1) cell lines were obtained from the American Type Culture Collection (ATCC). All cell lines were cultured in minimum essential medium containing Earle’s […]
salts and L-glutamine (Mediatech Cellgro, VA), to which were added 10% foetal bovine serum (Hyclone), vitamins (1×), penicillin (100 IU•mL-1), streptomycin (100 µg•mL−1), essential amino acids (1×), and sodium pyruvate (1×) (Mediatech Cellgro, VA). Cells were kept at 37 °C in a humidified environment containing 5% CO2.
Cytotoxicity Assay. Exponentially growing A549, DLD-1 or WS1 cells were plated in 96-well microplates (Costar, Corning Inc.) at a density of 5 × 10^3 cells per well in 100 µL of culture medium and were allowed to adhere for 16 h prior treatment. Increasing concentrations of each compound in biotech DMSO (Sigma-Aldrich) were then added (100 µL per well) and the cells were incubated for 48 h. The final concentration of DMSO in the culture medium was maintained at 0.5% (v/v) to avoid solvent toxicity. Cytotoxicity was assessed using resazurin9 on an automated 96-well Fluoroskan Ascent F1TM plate reader (Labsystems) using excitation and emission wavelengths of 530 and 590 nm, respectively. Fluorescence was proportional to the cellular metabolic activity in each well. Survival percentage was defined as the fluorescence in experimental wells as compared to that in control wells after subtraction of blank values. Each experiment was carried out three times in triplicate. IC50 results were expressed as means ± standard deviation. […]

[3] = system: sheep blood erythrocytes; assay: Hemolytic activity; format: cell-based; details: sheep blood erythrocytes; 1 h, 37 °C; max tested 200 μM
Method: Owing to their surfactant properties, glycolipids can break the membrane of red blood cells causing hemolytic activity.[18] To understand if the cytotoxicity of macrolactones 1, 4, 5β, and 6β was due to their surface tension activity, we evaluated the hemolytic potential of synthetic glycolipids 1–6 against sheep erythrocytes (Table 5). […] The non-cytotoxic rhamnolipid 3 was also found to exert a weak hemolytic activity (HC50 = 65 ± 6 μM). […]
Hemolytic Activity. The hemolytic activity of the synthetic surfactants was evaluated as previously described with small modifications.10 Defibrinated sheep blood (Oxoid) was centri fuged at 1000 × g for 5 min. The pellet containing erythrocytes was washed once and suspended in 1X PBS to obtain a 1% erythrocytes suspension. All samples were suspended in DMSO/PBS (5:1 v/v) and serially diluted in a 96 -well plate to obtain a range of co ncentrations from 1 mM to 7.8 µM.
The erythrocytes suspension (160 µL) was added to 40 µL of samples to obtain final concentrations […]
ranging between 200 µM and 1.56 µM. Triton X-100 was used as a positive hemolysis control.
The plate was then incubated at 37 °C with agitation at 150 rpm for 1 h and centrifuged at 1500 × g for 5 min. The supernatant was transferred in an empty plate and absorbance was measured at 540 nm using a Cytation3 microplate reader (Biotek). HC50 was calculated in comparison with the positive control. The experiment was performed in triplicate and repeated three times. […]

SMILES | Extracellular ROS production [1] | IC50 at 48 h [2] | Hemolysis (HC50 in μM) Erythrocytes [3]
CCCCCCC[C@@H]1CC(=O)OC[C@H]2O[C@@H](O[C@H](CCCCCCC)CC(=O)O1)[C@H](O)[C@@H](O)[C@@H]2O [Compound 1, ananatoside A] | not | 50 to 58 µM | 12.3 ± 0.3 µM
CCCCCCC[C@H](CC(=O)O)OC(=O)C[C@@H](CCCCCCC)O[C@@H]1O[C@H](CO)[C@@H](O)[C@H](O)[C@H]1O [Compound 2, ananatoside B] | less strong in amplitude, a similar pattern of ROS production | > 200 µM | >200 ^d μM
